# Reference: ChEMBL document CHEMBL4842362, “From virtual screening hits targeting a cryptic pocket in BACE-1 to a nontoxic brain permeable multitarget anti-Alzheimer lead with disease-modifying and cognition-enhancing effects” (Eur J Med Chem, 2021)
# The source made the active and inactive calls. The rule behind the calls is not given here.
# What was measured:
# Mus musculus [1] = assay: In vivo inhibition of GSK3 beta in SAMP8 mouse assessed as reduction in tau phosphorylation at Ser 404 residue at 2 mg/kg, po measured after 4 weeks by western blot analysis; type: functional, organism-based
# Mus musculus [2] = assay: Effect on amyloid pathology in hippocampal tissue of SAMP8 mouse assessed as increase in neprilysin (Nep) gene expression at 2 mg/kg, po measured after 4 weeks by RT-PCR analysis; type: functional, organism-based
# Mus musculus [3] = assay: Effect on amyloid pathology in hippocampal tissue of SAMP8 mouse assessed as increase in insulin-degrading enzyme (Ide) gene expression at 2 mg/kg, po measured after 4 weeks by RT-PCR analysis; type: functional, organism-based
# Mus musculus [4] = assay: Effect on amyloid pathology in hippocampal tissue of SAMP8 mouse assessed as decrease in Bace-1 gene expression at 2 mg/kg, po measured after 4 weeks by RT-PCR analysis; type: functional, organism-based
# Mus musculus [5] = assay: Effect on amyloid pathology in hippocampal tissue of SAMP8 mouse assessed as increase in Adam10 gene expression at 2 mg/kg, po measured after 4 weeks by RT-PCR analysis; type: functional, organism-based
# Mus musculus [6] = assay: In vivo inhibition of BACE-1 in hippocampal tissue of SAMP8 mouse assessed as increase in sAPP alpha levels at 2 mg/kg, po measured after 4 weeks by western blot analysis; type: functional, organism-based; details: Hippocampus
# Beta-secretase 1 = Beta-secretase 1 (Homo sapiens, UniProt P56817); assay: Inhibition of human recombinant BACE-1 expressed in Escherichia coli using panvera peptide as a substrate incubated for 1 hr by fluorescence analysis
# Acetylcholinesterase [7] = target: T1, Acetylcholinesterase (Homo sapiens, UniProt P22303); assay: Potency index, ratio of rhein-huprine hybrid IC50 to test compound IC50 for inhibition of human recombinant AChE using acetylthiocholine iodide as a substrate preincubated for 20 mins followed by substrate addition by spectrophotometric analysis
# Acetylcholinesterase [8] = target: T1, Acetylcholinesterase; assay: Potency index, ratio of donepezil IC50 to test compound IC50 for inhibition of human recombinant AChE using acetylthiocholine iodide as a substrate preincubated for 20 mins followed by substrate addition by spectrophotometric analysis
# Cholinesterase [9] = target: T2, Cholinesterase (Homo sapiens, UniProt P06276); assay: Potency index, ratio of rhein-huprine hybrid IC50 to test compound IC50 for inhibition of human serum BChE using butyrylthiocholine iodide as a substrate preincubated for 20 mins followed by substrate addition by spectrophotometric analysis; type: cell-free
# Cholinesterase [10] = target: T2, Cholinesterase; assay: Potency index, ratio of huprine-Y IC50 to test compound IC50 for inhibition of human serum BChE using butyrylthiocholine iodide as a substrate preincubated for 20 mins followed by substrate addition by spectrophotometric analysis; type: cell-free
# Cholinesterase [11] = target: T2, Cholinesterase; assay: Potency index, ratio of donepezil IC50 to test compound IC50 for inhibition of human serum BChE using butyrylthiocholine iodide as a substrate preincubated for 20 mins followed by substrate addition by spectrophotometric analysis; type: cell-free
# [12] = target: Amyloid-beta precursor protein (Homo sapiens) (UniProt P05067); assay: Inhibition of amyloid beta (1 to 42) (unknown origin) aggregation in Escherichia coli BL21 (DE3) at 10 uM incubated overnight by thioflavin S based fluorescence analysis relative to control
# [13] = target: Microtubule-associated protein tau (Homo sapiens) (UniProt P10636); assay: Inhibition of tau aggregation (unknown origin) in Escherichia coli BL21 (DE3) at 10 uM incubated overnight by thioflavin S based fluorescence analysis relative to control
# [14] = Antioxidant activity assessed as free radical scavenging activity at 500 uM incubated for 30 mins under dark condition by DPPH assay; type: functional
# HT-22 = assay: Neuroprotective activity against glutamate induced neuronal death in mouse HT-22 cells assessed as increase in cell viability at 1 to 25 uM by MTT assay; type: functional, cell-based; details: dose 1-25 µM
# [15] = Neurotoxicity in mouse HT-22 cells assessed as decrease in cell viability at up to 25 uM by MTT assay; type: cell-based
# [16] = Acute toxicity in zebra fish embryos assessed as lethality measured every 24 hrs for 72 hrs; parameters: species or system Danio rerio; details: zebrafish
# [17] = Permeability of the compound in PBS/EtOH by PAMPA-BBB assay; type: ADME; details: read-out: permeability
# [18] = Kinetic solubility of the compound in DMSO/PBS buffer measured after 2 hrs by nephalometric analysis; type: physicochemical; details: DMSO/PBS buffer, read-out: Kinetic_solubility
# [19] = Toxicity in SAMP8 mouse assessed as mortality at 2 mg/kg, po for 4 weeks; type: organism-based; details: in vivo, 672 h
# [20] = Toxicity in SAMP8 mouse assessed as toxic effects at 2 mg/kg, po for 4 weeks; type: organism-based; details: in vivo, 672 h
# Mus musculus [21] = assay: Cognitive enhancing effect in SAMP8 mouse assessed as improvement of short term retrieval by measuring discrimination index at 2 mg/kg, po administered for 4 weeks followed by 10 mins acquisition trail and measured after 2 hrs by novel object recognition test; type: functional, organism-based
# Mus musculus [22] = assay: Cognitive enhancing effect in SAMP8 mouse assessed as improvement of long term retrieval by measuring discrimination index at 2 mg/kg, po administered for 4 weeks followed by 10 mins acquisition trail and measured after 24 hrs by novel object recognition test; type: functional, organism-based
# Mus musculus [23] = assay: Cognitive enhancing effect in SAMP8 mouse assessed as reversal of spatial memory impairment by measuring discrimination index at 2 mg/kg, po administered for 4 weeks by object location test; type: functional, organism-based
# Mus musculus [24] = assay: In vivo inhibition of BACE-1 in hippocampal tissue of SAMP8 mouse assessed as reduction in sAPPbeta levels at 2 mg/kg, po measured after 4 weeks by Western blot analysis; type: functional, organism-based; details: Hippocampus
# Mus musculus [25] = assay: Modulation of oxidative stress in SAMP8 mouse assessed as increase in heme oxygenase 1 (Hmox1) gene expression in hippocampus tissue at 2 mg/kg, po measured after 4 weeks by RT-PCR analysis; type: functional, organism-based
# Mus musculus [26] = assay: Modulation of oxidative stress in SAMP8 mouse assessed as increase in cox-2 gene expression in hippocampus tissue at 2 mg/kg, po measured after 4 weeks by RT-PCR analysis; type: functional, organism-based
# Mus musculus [27] = assay: Effect on neuroinflammation in SAMP8 mouse assessed as decrease in IL-1 beta gene expression hippocampus tissue at 2 mg/kg, po measured after 4 weeks by RT-PCR analysis; type: functional, organism-based
# Mus musculus [28] = assay: Effect on neuroinflammation in SAMP8 mouse assessed as decrease in IL-6 gene expression hippocampus tissue at 2 mg/kg, po measured after 4 weeks by RT-PCR analysis; type: functional, organism-based
# Mus musculus [29] = assay: Effect on neuroinflammation in SAMP8 mouse assessed as decrease in TNF-alpha gene expression hippocampus tissue at 2 mg/kg, po measured after 4 weeks by RT-PCR analysis; type: functional, organism-based
# Mus musculus [30] = assay: Effect on neuroinflammation in SAMP8 mouse assessed as reduction in Cxcl10 gene expression hippocampus tissue at 2 mg/kg, po measured after 4 weeks by RT-PCR analysis; type: functional, organism-based
# Mus musculus [31] = assay: Effect on synaptic plasticity in SAMP8 mouse assessed as increase in PSD95 protein levels in hippocampus tissue at 2 mg/kg, po measured after 4 weeks by western blot analysis; type: functional, organism-based
# Mus musculus [32] = assay: Effect on synaptic plasticity in SAMP8 mouse assessed as increase in SYN protein levels in hippocampus tissue at 2 mg/kg, po measured after 4 weeks by western blot analysis; type: functional, organism-based
# Acetylcholinesterase [33] = target: T1, Acetylcholinesterase
# Description: Inhibition of human recombinant AChE using acetylthiocholine iodide as a substrate preincubated for 20 mins followed by substrate addition by spectrophotometric analysis
# Cholinesterase [34] = target: T2, Cholinesterase
# Description: Inhibition of human serum BChE using butyrylthiocholine iodide as a substrate preincubated for 20 mins followed by substrate addition by spectrophotometric analysis
# T2 sequence (P06276 whole entry): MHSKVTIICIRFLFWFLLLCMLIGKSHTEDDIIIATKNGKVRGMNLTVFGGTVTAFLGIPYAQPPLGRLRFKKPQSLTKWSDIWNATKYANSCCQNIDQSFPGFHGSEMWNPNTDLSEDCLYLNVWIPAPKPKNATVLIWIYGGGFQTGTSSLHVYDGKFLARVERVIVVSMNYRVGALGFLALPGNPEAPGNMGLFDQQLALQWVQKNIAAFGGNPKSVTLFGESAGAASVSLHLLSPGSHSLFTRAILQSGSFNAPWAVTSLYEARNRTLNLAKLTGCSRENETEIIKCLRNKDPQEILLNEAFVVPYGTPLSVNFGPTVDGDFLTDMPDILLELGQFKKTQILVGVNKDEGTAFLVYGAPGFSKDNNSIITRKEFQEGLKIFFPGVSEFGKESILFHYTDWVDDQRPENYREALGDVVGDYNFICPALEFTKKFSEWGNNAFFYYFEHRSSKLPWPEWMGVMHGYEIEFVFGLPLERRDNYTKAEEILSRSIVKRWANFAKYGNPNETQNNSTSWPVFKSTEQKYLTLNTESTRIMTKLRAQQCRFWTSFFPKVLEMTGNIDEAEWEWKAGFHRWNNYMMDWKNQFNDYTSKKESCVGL
# T1 sequence (P22303 whole entry): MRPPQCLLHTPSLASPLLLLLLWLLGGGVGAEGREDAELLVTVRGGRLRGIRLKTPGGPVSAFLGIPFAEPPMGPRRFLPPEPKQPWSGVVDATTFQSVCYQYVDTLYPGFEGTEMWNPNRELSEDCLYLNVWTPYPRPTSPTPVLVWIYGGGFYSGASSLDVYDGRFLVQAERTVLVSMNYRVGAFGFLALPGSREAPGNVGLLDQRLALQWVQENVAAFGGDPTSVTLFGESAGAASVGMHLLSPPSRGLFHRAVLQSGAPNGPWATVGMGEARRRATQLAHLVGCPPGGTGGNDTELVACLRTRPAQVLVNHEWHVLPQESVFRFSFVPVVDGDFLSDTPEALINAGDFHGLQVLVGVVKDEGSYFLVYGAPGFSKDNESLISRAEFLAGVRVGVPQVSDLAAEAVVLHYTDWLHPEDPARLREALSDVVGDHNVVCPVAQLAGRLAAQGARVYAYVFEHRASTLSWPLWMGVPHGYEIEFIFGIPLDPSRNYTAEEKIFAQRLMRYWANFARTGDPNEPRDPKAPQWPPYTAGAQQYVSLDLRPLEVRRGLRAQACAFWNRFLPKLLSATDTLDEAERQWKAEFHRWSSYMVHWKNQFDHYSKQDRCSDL
# Microtubule-associated protein tau (Homo sapiens), sequence (P10636 whole entry): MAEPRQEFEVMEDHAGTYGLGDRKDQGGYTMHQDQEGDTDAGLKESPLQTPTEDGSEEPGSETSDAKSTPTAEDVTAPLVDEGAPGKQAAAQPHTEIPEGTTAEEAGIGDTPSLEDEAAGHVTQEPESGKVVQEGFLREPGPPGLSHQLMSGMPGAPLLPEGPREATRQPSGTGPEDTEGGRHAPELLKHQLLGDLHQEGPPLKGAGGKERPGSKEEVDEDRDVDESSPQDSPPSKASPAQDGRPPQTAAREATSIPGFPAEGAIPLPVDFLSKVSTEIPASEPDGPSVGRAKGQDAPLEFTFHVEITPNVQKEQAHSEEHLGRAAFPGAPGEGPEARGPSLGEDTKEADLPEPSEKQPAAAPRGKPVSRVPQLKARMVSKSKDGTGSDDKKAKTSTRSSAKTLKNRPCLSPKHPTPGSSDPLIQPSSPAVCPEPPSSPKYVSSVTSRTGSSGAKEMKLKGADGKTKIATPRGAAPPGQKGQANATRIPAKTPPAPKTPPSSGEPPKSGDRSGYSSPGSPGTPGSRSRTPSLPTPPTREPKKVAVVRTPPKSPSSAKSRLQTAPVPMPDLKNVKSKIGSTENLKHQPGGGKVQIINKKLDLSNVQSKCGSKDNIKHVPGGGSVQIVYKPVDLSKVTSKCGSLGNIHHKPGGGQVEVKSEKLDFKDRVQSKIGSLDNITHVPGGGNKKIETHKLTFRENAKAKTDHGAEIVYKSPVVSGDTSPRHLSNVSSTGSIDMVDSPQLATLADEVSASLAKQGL
# Amyloid-beta precursor protein (Homo sapiens), sequence (P05067 whole entry): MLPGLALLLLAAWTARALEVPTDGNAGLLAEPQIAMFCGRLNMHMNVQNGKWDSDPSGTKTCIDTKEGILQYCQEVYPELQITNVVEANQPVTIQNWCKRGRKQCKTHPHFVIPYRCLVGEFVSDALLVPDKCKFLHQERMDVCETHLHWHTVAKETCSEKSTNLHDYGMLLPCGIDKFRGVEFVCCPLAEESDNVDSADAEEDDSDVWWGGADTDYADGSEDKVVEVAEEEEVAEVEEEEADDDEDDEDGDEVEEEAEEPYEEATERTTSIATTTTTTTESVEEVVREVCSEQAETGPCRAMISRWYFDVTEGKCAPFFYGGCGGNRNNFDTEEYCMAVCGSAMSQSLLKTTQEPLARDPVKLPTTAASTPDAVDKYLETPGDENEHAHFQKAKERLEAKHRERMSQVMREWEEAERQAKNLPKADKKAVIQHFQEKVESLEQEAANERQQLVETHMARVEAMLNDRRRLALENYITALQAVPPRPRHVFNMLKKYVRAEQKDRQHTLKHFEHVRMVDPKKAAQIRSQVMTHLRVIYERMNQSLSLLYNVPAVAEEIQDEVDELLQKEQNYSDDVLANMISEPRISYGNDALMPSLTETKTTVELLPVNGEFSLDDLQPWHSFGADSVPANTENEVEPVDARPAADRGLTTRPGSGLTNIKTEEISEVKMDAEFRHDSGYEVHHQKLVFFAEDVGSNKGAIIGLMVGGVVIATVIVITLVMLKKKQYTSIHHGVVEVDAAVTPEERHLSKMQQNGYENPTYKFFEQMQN
# Beta-secretase 1, sequence (P56817 whole entry): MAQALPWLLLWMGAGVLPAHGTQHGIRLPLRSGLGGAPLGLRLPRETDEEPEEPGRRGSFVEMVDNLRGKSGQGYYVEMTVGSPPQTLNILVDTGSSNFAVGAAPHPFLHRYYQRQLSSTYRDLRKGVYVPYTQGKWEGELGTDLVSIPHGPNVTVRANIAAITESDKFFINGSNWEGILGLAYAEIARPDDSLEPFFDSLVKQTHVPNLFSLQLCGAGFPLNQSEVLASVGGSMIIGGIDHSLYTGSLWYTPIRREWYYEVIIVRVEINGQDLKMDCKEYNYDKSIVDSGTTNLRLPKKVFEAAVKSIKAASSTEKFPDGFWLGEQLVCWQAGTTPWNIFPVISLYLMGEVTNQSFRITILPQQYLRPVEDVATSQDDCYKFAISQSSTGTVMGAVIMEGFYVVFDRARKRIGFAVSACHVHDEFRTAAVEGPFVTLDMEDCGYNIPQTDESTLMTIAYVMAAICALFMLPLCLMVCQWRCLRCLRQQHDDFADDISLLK
smiles,measurement,setting,value
CC1=CC2Cc3nc4cc(Cl)ccc4c(NCCCCCCCCCNC(=O)c4cc(O)cc(O)c4)c3C(C1)C2 (stereo unspecified),inhibition,Mus musculus [1],Active
same,Activity,Mus musculus [2],Active
same,Activity,Mus musculus [3],inactive
same,Activity,Mus musculus [4],Active
same,Activity,Mus musculus [5],Active
same,Activity,Mus musculus [6],Active
same,IC50,Beta-secretase 1,2710 nM
same,Ratio IC50,Acetylcholinesterase [7],< 9
same,Ratio IC50,Acetylcholinesterase [8],< 65
same,Ratio IC50,Cholinesterase [9],7
same,Ratio IC50,Cholinesterase [10],2
same,Ratio IC50,Cholinesterase [11],79
same,inhibition,[12],49.5%
same,inhibition,[13],65.8%
same,Activity,[14],inactive
same,Activity,HT-22,inactive
same,Activity,[15],Non-Toxic
same,LC50 at 72 h,[16],> 100000 nM
same,Papp,[17],9.4 ×10⁻⁶ cm/s
same,solubility kinetic at 2 h,[18],10.8 µg/mL
same,Activity,[19],Non-Toxic
same,Activity,[20],Non-Toxic
same,Activity,Mus musculus [21],Active
same,Activity,Mus musculus [22],Active
same,Activity,Mus musculus [23],Active
same,Activity,Mus musculus [24],Active
same,Activity,Mus musculus [25],Active
same,Activity,Mus musculus [26],inactive
same,Activity,Mus musculus [27],Active
same,Activity,Mus musculus [28],Active
same,Activity,Mus musculus [29],Active
same,Activity,Mus musculus [30],Active
same,Activity,Mus musculus [31],Active
same,Activity,Mus musculus [32],Active
same,IC50,Acetylcholinesterase [33],2.57 nM
same,IC50,Cholinesterase [34],43 nM
